In PMC4762250, “Novel cis-selective and non-epimerisable C3 hydroxy azapodophyllotoxins targeting microtubules in cancer cells” (European Journal of Medicinal Chemistry, 2016):
Read-outs that look alike come from different tables or passages of the source.

Legend:
[1] = system: microtubules in MCF-7 cells; assay: Microtubule repolymerisation assay, first variation (6 h pre-treatment); type: cell-based, human; conditions: 250 nM 6 h pre-treatment, 30 min on ice, rewarmed 37 °C 30 min
Method: (§1) Cold depolymerisation of the tubulin cytoskeleton in vitro, including in MCF-7 cells, can be achieved by relatively short incubations at 4 °C [27], [28], [29]. To test the ability of the compounds to impair microtubule polymerisation, following depolymerisation, two variations of a tubulin re-polymerisation assay were performed. In the first, MCF-7 cells were pre-treated for 6 h with 250 nM of the compounds before being incubated on ice for 30 min then rewarmed to 37 °C for a further 30 min. In the second variation, cells were first incubated on ice then rewarmed to 37 °C in the presence of the compounds (250 nM, 30 min total treatment time). Samples of cells were fixed post-cold depolymerisation and post-warm repolymerisation. In both variations, immunofluorescence for α-tubulin was performed and cells were imaged by confocal microscopy (Fig. 6 and 7). In control and treated cells, incubation on ice for 30 min led to total loss of filamentous tubulin and the protein was diffusely scattered throughout the cytoplasm. […] Upon increasing the temperature to 37 °C for 30 min there was clear repolymerisation of the microtubule network.
Following cell seeding (42 h) the media was replaced with drug (or diluent control) containing complete media and cells were treated for 6 h with 250 nM of podophyllotoxin, compound 8e, 8b or 0.01% DMSO. The plates were then placed on ice and cells were incubated at 4 °C for 30 min to depolymerise the tubulin cytoskeleton, [28], [30]. One set of cover slips for each treatment condition was prepared for tubulin immunofluorescence (see protocol below) and the remaining sets of cover slips were returned to the incubator (37 °C, 5% CO2) for 30 min to allow re-polymerisation of microtubules. Tubulin immunofluorescence was performed after the cells had been rewarmed for 30 min (see below). […]
(§2) Confocal fluorescence microscopy analysis was conducted on a Leica SP5 inverted confocal laser scanning microscope. […] Images were recorded using the sequential scanning mode to prevent fluorescence channel crosstalk/bleed-through. […]

[2] = system: microtubules in MCF-7 cells; assay: Microtubule repolymerisation assay, second variation (no pre-treatment); type: cell-based, human; conditions: 30 min on ice, then rewarmed 37 °C 30 min in presence of 250 nM compound
Method: as §1
Following cell seeding (42 h), the plates were placed on ice for 30 min to cold-depolymerise the tubulin cytoskeleton. Control cold-depolymerised coverslips were then immediately prepared for tubulin immunofluorescence and the remaining coverslips were rewarmed and treated with 250 nM of podophyllotoxin, compound 8e, 8b or 0.01% DMSO for 30 min (37 °C, 5% CO2). Together with the controls these were then subjected to tubulin immunofluorescence.
The media was aspirated and the cells were washed once in ice-cold PBS before being fixed in 100% methanol at −20 °C for 10 min. The cells were then washed thrice in PBS and stored overnight at 4 °C. […]
as §2

[3] = system: microtubules in MCF-7 cells; assay: Microtubule immunofluorescence assay (α-tubulin, confocal microscopy); type: cell-based, human; conditions: 250 nM, 6 h; for effect on tubulin cytoskeleton: MCF-7, interphase cells for 8e and 8b, all cells for podophyllotoxin; for induced defects in dividing cells: MCF-7 dividing cells
Method: In order to investigate the microtubule-destabilising ability of these analogues, experiments were conducted to determine their effects on the subcellular organisation of microtubules in vitro [27]. […] The nuclei of control interphase cells were relatively monomorphic. […] Analogue treated cells in interphase featured shorter microtubule filaments and slightly more disordered microtubule networks than control cells.
Following cell seeding (42 h) the media was replaced with fresh complete media containing 250 nM of podophyllotoxin, compound 8e and 8b or 0.01% DMSO. The cells were treated for 6 h with drug or diluent control then subjected to downstream immunofluorescence analysis (see tubulin immunofluorescence protocol).
The media was aspirated and the cells were washed once in ice-cold PBS before being fixed in 100% methanol at −20 °C for 10 min. The cells were then washed thrice in PBS and stored overnight at 4 °C. The following day cells were incubated in 150 μL of blocking solution (2% FBS [v/v], 2% BSA [w/v] in PBS pH 7.4) for 30 min. Blocking was followed by 1 h incubation with 100 μl of mouse anti-α tubulin antibody diluted 1:2000 in blocking solution. Cells were then washed 3 × 5min in PBS before being incubated with Alexa488 labelled, anti-mouse secondary antibody (1:400) and Hoechst 33342 (1 μg/ml) for 30 min. The cells were washed a final 3 × 5 min in PBS before coverslips were dipped once into PBS, once into dH2O and mounted onto glass slides with 12 μL of mounting medium (Dako oil). Three independent experiments were carried out in duplicate.
Confocal fluorescence microscopy analysis was conducted on a Leica SP5 inverted confocal laser scanning microscope. The microscope was equipped with a 63x oil-immersion objective and the 405 and 488 nm lasers were used. Gain and offset settings were optimised for each fluorescent channel within an experiment. Images were recorded using the sequential scanning mode to prevent fluorescence channel crosstalk/bleed-through. Images were scanned at 100 Hz with a line average of three to reduce noise.

[4] = system: human breast cancer cell line MCF-7; assay: Oncotest propidium iodide monolayer cell proliferation assay, MCF-7; type: cell-based
Method: (§3) The anticancer activity of compounds (8a-q) was evaluated using the Oncotest monolayer assay in the human prostate cancer cell line 22Rv1 and the human breast cancer cell line MCF-7, as an outsourced service. […] Antitumour activity was assessed after four days of treatment with the compounds using a propidium iodide based monolayer assay. Potency is expressed as absolute IC50 values, calculated by non-linear regression analysis following testing in triplicate. The seventeen inhibitors were tested at 10 concentrations in half-log increments up to 100 μM in triplicate.
(§4) A modified propidium iodide (PI) based monolayer assay was used to assess the anti-cancer activity of the compounds. Briefly, cells were harvested from exponential phase cultures, counted and plated in 96-well flat-bottom microtiter plates at a cell density of 8.000–12.000 cells/well. After a 24 h recovery period to allow the cells to resume exponential growth, 10 μl of culture medium (six control wells/plate) or culture medium with test compound were added. The compounds were applied in half-log increments at 10 concentrations in triplicate. After a total treatment period of 96 h, cells were washed with 200 μl PBS to remove dead cells and debris. Then, 200 μl of a solution containing 7 μg/mL propidium iodide (PI) was added. After an incubation period of 1–2 h at room temperature, fluorescence (FU) was measured using the EnSpire Multimode Plate Reader (excitation λ = 530 nm, emission λ = 620 nm) to quantify the amount of attached viable cells. IC50 values were calculated by 4-parameter non-linear curve fit using Oncotest Warehouse Software. For calculation of mean IC50 values the geometric mean was used.

[5] = system: human prostate cancer cell line 22Rv1; assay: Oncotest propidium iodide monolayer cell proliferation assay, 22Rv1; type: cell-based; conditions: mean absolute IC50, 96 h treatment, propidium iodide endpoint, triplicate
Method: as §3, §4

MCF-7 and 22Rv1 = assay: Oncotest monolayer assay, results stated over both cell lines; type: cell-based, human; conditions: cell viability, ten concentrations up to 100 μM, Fig. 3
Method: as §3, §4

[6] = design: method as in PMID 3290912; conditions: cis isomer versus podophyllotoxin; cited from earlier work
[7] = Homo sapiens, MCF7, 96 h, mean absolute IC50, 96 h treatment, propidium iodide endpoint, triplicate, read-out: MCF-7 IC50

Row | IC50 [4, 7] [µM] | IC50 ([4]; mean absolute IC50, 96 h treatment, propidium iodide endpoint, triplicate, read-out: MCF-7 IC50) [µM] | IC50 ([5]; Homo sapiens, 22Rv1, 96 h) [nM] | IC50 [5] [nM] | SMILES | repolymerisation of tubulin following cold depolymerisation [1] | repolymerisation of tubulin following cold depolymerisation [2] | effect on tubulin cytoskeleton [3] | induced defects in dividing cells [3] | concentration-effect curve (MCF-7 and 22Rv1) | IC50 ([4]; Homo sapiens, MCF7, 96 h, read-out: MCF-7 IC50 (μM)) [µM] | less active than podophyllotoxin [6] [fold]
1 | 0.21 | 0.209 | 110 | 107 | O=C1OC[C@]2(O)Nc3c(c4cccnc4c4ncccc34)[C@@H](c3ccccc3C(F)(F)F)[C@@H]12 (mixture of isomers) [Compound 8e, (9aS, 12aR, 13R) and (9aR, 12aS, 13S) 9a-hydroxy-13-(2-(trifluoromethyl)phenyl)-9a,10,12a,13-tetrahydrofuro[3,4-b]pyrido[3,2-f][1,10]phenanthrolin-12(9H)-one] | the microtubule cytoskeleton was still able to reform but mitotic defects and shorter filaments | the microtubule cytoskeleton was able to reform with negligible defects | more subtle changes in the tubulin filaments and their organisation | aberrations of spindle morphology and polarity, nuclear atypia (pleomorphism, pyknosis) and uncongressed/misaligned chromosomes | sigmoidal concentration-effect curves with low bottom plateaus indicating total cell kill at higher test concentration |  | 
2 |  |  |  |  | COc1cc([C@@H]2c3cc4c(cc3[C@H](O)[C@H]3COC(=O)[C@H]23)OCO4)cc(OC)c1OC [Podophyllotoxin] | significantly impaired the repolymerisation of tubulin following cold depolymerisation | significantly impaired the repolymerisation of tubulin following cold depolymerisation | dramatic disruption of the tubulin cytoskeleton |  |  | 0.23 | 
3 | 0.288 |  | 165 |  | O=C1OC[C@]2(O)Nc3c(c4cccnc4c4ncccc34)[C@@H](c3ccccc3OC(F)(F)F)[C@H]12 (mixture of isomers) [Compound 8b, (9aS, 12aS, 13S) and (9aR, 12aR, 13R) 9a-hydroxy-13-(2-(trifluoromethoxy)phenyl)-9a,10,12a,13-tetrahydrofuro[3,4-b]pyrido[3,2-f][1,10]phenanthrolin-12(9H)-one] | the microtubule cytoskeleton was still able to reform but mitotic defects and shorter filaments | the microtubule cytoskeleton was able to reform with negligible defects | more subtle changes in the tubulin filaments and their organisation | aberrations of spindle morphology and polarity, nuclear atypia (pleomorphism, pyknosis) and uncongressed/misaligned chromosomes | sigmoidal concentration-effect curves with low bottom plateaus indicating total cell kill at higher test concentration |  | 
4 |  |  |  |  | COc1cc([C@@H]2c3cc4c(cc3[C@H](O)[C@H]3COC(=O)[C@@H]23)OCO4)cc(OC)c1OC [picropodophyllin] |  |  |  |  |  |  | 100
